What was measured:
Coagulation factor X = Coagulation factor X (Homo sapiens, UniProt P00742); experiment: In vitro inhibition of Coagulation factor Xa.
Plasminogen = Plasminogen (Homo sapiens, UniProt P00747); experiment: In vitro inhibition of Plasmin.
Serine protease 1 = Serine protease 1 (Homo sapiens, UniProt P07477); experiment: In vitro inhibition of trypsin.
Prothrombin = Prothrombin (Homo sapiens, UniProt P00734); experiment: In vitro inhibition of thrombin.
[1] = target: T1, Urokinase-type plasminogen activator (Homo sapiens, UniProt P00749); experiment: In vitro inhibition of plasminogen activator urokinase.
[2] = target: T1, Urokinase-type plasminogen activator

Sequence of Serine protease 1 (P07477 whole entry): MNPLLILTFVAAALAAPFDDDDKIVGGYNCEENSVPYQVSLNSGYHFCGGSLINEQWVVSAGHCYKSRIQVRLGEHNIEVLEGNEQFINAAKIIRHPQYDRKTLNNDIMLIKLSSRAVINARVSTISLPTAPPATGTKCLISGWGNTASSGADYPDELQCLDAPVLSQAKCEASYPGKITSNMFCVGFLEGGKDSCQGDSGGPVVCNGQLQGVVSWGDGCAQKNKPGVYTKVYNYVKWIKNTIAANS
Sequence of Coagulation factor X (P00742 41-179 limits assumed): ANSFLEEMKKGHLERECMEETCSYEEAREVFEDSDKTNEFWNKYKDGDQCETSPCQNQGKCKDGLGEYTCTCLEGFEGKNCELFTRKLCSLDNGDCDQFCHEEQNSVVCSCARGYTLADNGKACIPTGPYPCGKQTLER
Sequence of Coagulation factor X (P00742 235-488 limits assumed): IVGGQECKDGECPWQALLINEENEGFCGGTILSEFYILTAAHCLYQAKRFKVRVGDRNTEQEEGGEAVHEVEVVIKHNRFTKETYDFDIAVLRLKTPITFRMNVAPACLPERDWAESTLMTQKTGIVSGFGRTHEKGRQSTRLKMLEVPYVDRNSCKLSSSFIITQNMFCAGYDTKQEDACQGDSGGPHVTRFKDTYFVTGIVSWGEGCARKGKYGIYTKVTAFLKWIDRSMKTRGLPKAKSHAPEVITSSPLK
Sequence of Plasminogen (P00747 97-580 limits assumed): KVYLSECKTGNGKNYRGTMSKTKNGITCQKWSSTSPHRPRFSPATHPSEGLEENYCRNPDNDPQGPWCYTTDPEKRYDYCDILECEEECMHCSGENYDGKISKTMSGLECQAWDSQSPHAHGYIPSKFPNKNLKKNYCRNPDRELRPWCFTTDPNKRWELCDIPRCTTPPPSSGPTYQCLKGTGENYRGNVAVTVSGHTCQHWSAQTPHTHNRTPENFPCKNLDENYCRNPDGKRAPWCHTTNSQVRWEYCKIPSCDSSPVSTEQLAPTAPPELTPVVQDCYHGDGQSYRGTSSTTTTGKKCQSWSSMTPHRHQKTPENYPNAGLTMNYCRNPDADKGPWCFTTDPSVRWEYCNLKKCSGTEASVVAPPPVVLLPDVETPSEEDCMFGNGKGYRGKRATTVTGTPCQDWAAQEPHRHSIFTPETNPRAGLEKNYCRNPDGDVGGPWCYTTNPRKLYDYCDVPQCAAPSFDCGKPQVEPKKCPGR
Sequence of Plasminogen (P00747 581-810 limits assumed): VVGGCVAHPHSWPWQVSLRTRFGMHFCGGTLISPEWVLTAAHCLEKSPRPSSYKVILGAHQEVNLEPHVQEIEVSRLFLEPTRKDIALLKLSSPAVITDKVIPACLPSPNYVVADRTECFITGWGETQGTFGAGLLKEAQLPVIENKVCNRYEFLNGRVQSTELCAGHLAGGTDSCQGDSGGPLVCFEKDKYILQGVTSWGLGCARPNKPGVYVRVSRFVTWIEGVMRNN

In the case of `N=C(N)c1ccc(CNC(=O)CNC(=O)[C@@H](N)CCC(=O)O)cc1`, the Ki (Coagulation factor X) is reported as > 1000 µM, the Ki (Plasminogen) is reported as > 1000 µM and the Ki (Serine protease 1) is reported as 5 µM. For the same compound, the Ki (Prothrombin) was > 1000 µM and the Ki [1] was 22 µM.
With `CC(=O)N[C@H](CO)C(=O)NCC(=O)NCc1ccc(C(=N)N)cc1` the Ki (Coagulation factor X) was > 1000 µM, the Ki (Plasminogen) was > 1000 µM and the Ki (Serine protease 1) was 14 µM. The Ki (Prothrombin) was > 1000 µM.
`CC(C)(C)OC(=O)NC(CCC(=O)O)C(=O)NCC(=O)NCc1ccc(C(=N)N)cc1` (stereo not drawn) was tested, and the Ki (Coagulation factor X) was > 1000 µM, the Ki (Plasminogen) was > 1000 µM and the Ki (Serine protease 1) was 2.8 µM. The Ki (Prothrombin) was > 1000 µM and the Ki [1] was 82 µM.
`N=C(N)c1ccc(CNC(=O)CNC(=O)[C@@H](CO)NS(=O)(=O)Cc2ccccc2)cc1` gave a Ki (Coagulation factor X) of 3 µM, a Ki (Serine protease 1) of 0.15 µM and a Ki (Prothrombin) of 13 µM.
`CC(C)(C)OC(=O)N[C@@H](CO)C(=O)NCC(=O)NCc1ccc(C(=N)N)cc1` was tested, and the Ki (Coagulation factor X) was 110 µM, the Ki (Plasminogen) was 210 µM and the Ki (Serine protease 1) was 3.4 µM. For the same compound, the Ki (Prothrombin) was 69 µM.
`N=C(N)c1ccc(CNC(=O)CNC(=O)[C@@H](N)CO)cc1` was tested, and the Ki (Coagulation factor X) was > 1000 µM, the Ki (Plasminogen) was > 1000 µM and the Ki (Serine protease 1) was 7 µM. The Ki (Prothrombin) was > 1000 µM.
In the case of `CC(C)(C)OC(=O)N[C@H](CO)C(=O)NCC(=O)NCc1ccc(C(=N)N)cc1`, the Ki (Coagulation factor X) is reported as 140 µM, the Ki (Plasminogen) is reported as > 1000 µM and the Ki (Serine protease 1) is reported as 4.5 µM. For the same compound, the Ki (Prothrombin) was 170 µM and the Ki [1] was 9 µM.
Compound `CC(C)COC(=O)OC[C@@H](NS(=O)(=O)Cc1ccccc1)C(=O)N[C@@H](C)C(=O)NCc1ccc(C(=N)N)cc1` has a Ki (Coagulation factor X) of 0.41 µM, a Ki (Plasminogen) of 0.15 µM and a Ki (Serine protease 1) of 0.0048 µM. It also gave a Ki (Prothrombin) of 0.05 µM and a Ki [1] of 0.043 µM.
`N=C(N)c1ccc(CNC(=O)[C@H]2CCCN2C(=O)[C@@H](CO)NS(=O)(=O)Cc2ccccc2)cc1` was tested, and the Ki (Coagulation factor X) was 2 µM, the Ki (Plasminogen) was 0.15 µM and the Ki (Serine protease 1) was 0.0032 µM. The Ki (Prothrombin) was 0.012 µM.
Compound `CC(C)COC(=O)OC[C@@H](NS(=O)(=O)Cc1ccccc1)C(=O)NCC(=O)NCc1ccc(C(=N)N)cc1` has a Ki (Plasminogen) of 2.4 µM, a Ki (Serine protease 1) of 0.12 µM and a Ki (Prothrombin) of 4 µM.
In the case of `N=C(N)c1ccc(CNC(=O)CNC(=O)[C@H](N)CO)cc1`, the Ki (Coagulation factor X) is reported as > 1000 µM, the Ki (Plasminogen) is reported as > 1000 µM and the Ki (Serine protease 1) is reported as 6.9 µM. For the same compound, the Ki (Prothrombin) was 200 µM.
In the case of `N=C(N)c1ccc(CNC(=O)CNC(=O)[C@@H](CO)NS(=O)(=O)CC2CCCCC2)cc1`, the Ki (Coagulation factor X) is reported as 2 µM, the Ki (Plasminogen) is reported as 17 µM and the Ki (Serine protease 1) is reported as 0.11 µM. The Ki (Prothrombin) was 10 µM.
`N=C(N)c1ccc(CNC(=O)CNC(=O)[C@@H](CO)NC(=O)OCc2ccccc2)cc1` gave a Ki (Coagulation factor X) of 140 µM, a Ki (Plasminogen) of 160 µM and a Ki (Serine protease 1) of 4.3 µM. For the same compound, the Ki (Prothrombin) was 230 µM and the Ki [1] was 4 µM.
Work on `CC(C)c1cc(S(=O)(=O)N[C@H](CO)C(=O)NCC(=O)NCc2ccc(C(=N)N)cc2)cc(C(C)C)c1C(C)C` yielded a Ki (Coagulation factor X) of 100 µM, a Ki (Plasminogen) of 75 µM and a Ki (Serine protease 1) of 3.4 µM. The Ki (Prothrombin) was 15 µM and the Ki [1] was 1.5 µM.
Compound `N=C(N)c1ccc(CNC(=O)CNC(=O)[C@@H](CO)NS(=O)(=O)c2ccc3ccccc3c2)cc1` has a Ki (Coagulation factor X) of 28 µM, a Ki (Plasminogen) of 32 µM and a Ki (Serine protease 1) of 1.8 µM. For the same compound, the Ki (Prothrombin) was 11 µM and the Ki [1] was 1.2 µM.
`C[C@H](NC(=O)[C@@H](CO)NS(=O)(=O)Cc1ccccc1)C(=O)NCc1ccc(C(=N)N)cc1` showed a Ki (Coagulation factor X) of 2.1 µM, a Ki (Plasminogen) of 0.54 µM and a Ki (Serine protease 1) of 0.0033 µM. For the same compound, the Ki (Prothrombin) was 0.11 µM.
`N=C(N)c1ccc(CNC(=O)CNC(=O)[C@@H](CO)NS(=O)(=O)CCc2ccccc2)cc1` was tested, and the Ki (Coagulation factor X) was 28 µM, the Ki (Plasminogen) was 59 µM and the Ki (Serine protease 1) was 0.9 µM. The Ki (Prothrombin) was 33 µM and the Ki [1] was 0.49 µM.
`N=C(N)c1ccc(CNC(=O)CNS(=O)(=O)c2ccc3ccccc3c2)cc1` gave a Ki (Coagulation factor X) of 10.6 µM, a Ki (Plasminogen) of 43 µM and a Ki (Serine protease 1) of 0.65 µM. For the same compound, the Ki (Prothrombin) was 16 µM.
In the case of `CC(NS(=O)(=O)c1ccc2ccccc2c1)C(=O)NCc1ccc(C(=N)N)cc1` (single isomer, unassigned; (-)), the Ki [1] is reported as 9.6 µM.
`N=C(N)c1ccc(CNC(=O)CNC(=O)[C@@H](CO)NS(=O)(=O)/C=C/c2ccccc2)cc1` showed a Ki (Coagulation factor X) of 15 µM, a Ki (Plasminogen) of 140 µM and a Ki (Serine protease 1) of 1.7 µM. For the same compound, the Ki (Prothrombin) was 15 µM and the Ki [1] was 2.2 µM.
In the case of `N/C(=N\O)c1ccc(CNC(=O)CNC(=O)[C@@H](CO)NS(=O)(=O)Cc2ccccc2)cc1`, the Ki (Coagulation factor X) is reported as > 1000 µM, the Ki (Plasminogen) is reported as > 1000 µM and the Ki (Serine protease 1) is reported as > 1000 µM. The Ki (Prothrombin) was > 1000 µM.
`C[C@H](NC(=O)[C@@H](CO)NS(=O)(=O)CCc1ccccc1)C(=O)N[C@H]1CCCN(C(=N)N)C1O` (stereo partly drawn) was tested, and the Ki [2] was 3.1 µM.
For `COC(=O)OC[C@@H](NS(=O)(=O)Cc1ccccc1)C(=O)NCC(=O)NCc1ccc(C(=N)N)cc1`, the Ki (Coagulation factor X) was 0.34 µM, the Ki (Plasminogen) was 10.9 µM and the Ki (Serine protease 1) was 0.064 µM. For the same compound, the Ki (Prothrombin) was 3 µM.

Source: ChEMBL document CHEMBL1135855, “4-amidinobenzylamine-based inhibitors of urokinase” (Bioorg Med Chem Lett, 2002)
